Measurements taken from patent publication US20240293392A1, “INHIBITOR COMPOUNDS” (NeoPhore Limited, priority 2021, published 2024).

Assays:
[1] = molecular target: T1, recombinant N-terminal MLH1 (residues 15-340) (Homo sapiens, UniProt P40692); assay: Fluorescence Polarisation Assay for MLH1; format: binding; conditions: fluorescence polarisation probe displacement; 100 nM N-terminal MLH1, 5 nM probe compound
T1 construct: recombinant N-terminal MLH1 (residues 15-340)
T1 sequence (P40692 15-340): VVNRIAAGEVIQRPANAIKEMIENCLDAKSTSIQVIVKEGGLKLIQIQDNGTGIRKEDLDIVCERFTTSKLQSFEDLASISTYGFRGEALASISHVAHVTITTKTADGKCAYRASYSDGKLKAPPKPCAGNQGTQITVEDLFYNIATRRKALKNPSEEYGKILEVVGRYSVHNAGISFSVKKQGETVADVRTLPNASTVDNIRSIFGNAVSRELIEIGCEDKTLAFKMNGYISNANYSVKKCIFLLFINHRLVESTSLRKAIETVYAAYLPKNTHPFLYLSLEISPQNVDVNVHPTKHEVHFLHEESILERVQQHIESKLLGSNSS
Procedure: Fluorescence Polarisation Assay for MLH1
Test compounds, as 10 mM DMSO stocks, were dispensed into a 384-well Low Flange Black Flat Bottom Polystyrene Non-binding Surface plate (Corning®, item number 3575) using a Labcyte Echo acoustic liquid handler. Test compounds were added to wells in columns 1-22 whilst DMSO was added to wells in columns 23 and 24 in order to normalise the plate. 20 μL of a 2× solution (200 nM) of recombinant N-terminal MLH1 (residues 15-340) in assay buffer (25 mM HEPES, pH 7.5, 250 mM NaCl, 10 mM MgCl2, 0.01% Triton X-100, 5 mM dithiothreitol) was added to all wells in columns 1-23 and 20 μL assay buffer was added to all wells in column 24 using an E1-ClipTip pipette (ThermoFisher). Plates were centrifuged for 1 minute at 250×g and were incubated at room temperature for 30 minutes prior to the addition of 20 μL of 2× (10 nM) 5-((5-(4-((2-(2,4-dihydroxy-5-isopropylbenzoyl)isoindolin-5-yl)methyl)piperazin-1-yl)pentyl)carbamoyl)-2-(6-(dimethylamino)-3-(dimethyliminio)-3H-xanthen-9-yl)benzoate in assay buffer (prepared from a 1 mM DMSO stock) with an E1-ClipTip pipette (ThermoFisher). The final concentration of N-terminal MLH1 was 100 nM and the final concentration of the probe compound was 5 nM. Compound plates were centrifuged for 1 minute at 250×g for 1 minute and immediately read on a PheraStar FSX (fitted with 384-well aperture spoon and 590 675 675 FP optic module). The gain and focus were adjusted before each plate was read so that the polarisation of a no enzyme control (column 24) was equal to 35 mP. Data were normalised against the no inhibitor controls (column 23) and no enzyme controls (column 24).

[2] = molecular target: T2, recombinant N-terminal PMS2 (residues 1-365) (Homo sapiens, UniProt P54278); assay: Fluorescence Polarisation Assay for PMS2; format: binding; conditions: fluorescence polarisation probe displacement; 10 nM N-terminal PMS2, 5 nM probe compound; read-out: PMS2 IC50
T2 construct: recombinant N-terminal PMS2 (residues 1-365)
T2 sequence (P54278 1-365): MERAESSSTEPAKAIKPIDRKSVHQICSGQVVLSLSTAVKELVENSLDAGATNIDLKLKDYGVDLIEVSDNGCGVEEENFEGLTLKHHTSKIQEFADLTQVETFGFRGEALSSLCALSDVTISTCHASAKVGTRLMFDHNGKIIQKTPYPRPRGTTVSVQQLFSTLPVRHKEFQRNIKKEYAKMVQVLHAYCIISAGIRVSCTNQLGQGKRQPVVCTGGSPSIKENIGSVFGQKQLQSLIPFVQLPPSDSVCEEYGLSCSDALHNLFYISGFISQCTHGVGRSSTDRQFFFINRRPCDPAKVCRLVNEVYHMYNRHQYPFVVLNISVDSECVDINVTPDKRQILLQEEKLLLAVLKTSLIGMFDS
Procedure: Fluorescence Polarisation Assay for PMS2
For single point screening, test compounds were added to wells in columns 1-22 whilst DMSO was added to wells in columns 23 and 24 in order to normalise the plate. For potency determination, serial dilutions of test compounds were added to wells in columns 3-22 and DMSO volume was normalised across the plate.
20 μL assay buffer was added to all wells in columns 1 and 24 (column 24 only for single point screening) using a MultiDrop Combi (ThermoFisher). Plates were centrifuged for 1 minute at 250×g and were incubated at room temperature for 30 minutes prior to the addition of 20 μL of 2× (20 nM) of 5-((5-(4-((2-(2,4-dihydroxy-5-isopropylbenzoyl)isoindolin-5-yl)methyl)piperazin-1-yl)pentyl)carbamoyl)-2-(6-(dimethylamino)-3-(dimethyliminio)-3H-xanthen-9-yl)benzoate (referred to hereinafter as “probe compound”) in assay buffer (prepared from a 100 μM DMSO stock) with a MultiDrop Combi (ThermoFisher). The final concentration of N-terminal PMS2 was 10 nM and the final concentration of probe compound was 5 nM.
Compound plates were centrifuged for 1 minute at 250×g for 1 minute and were incubated at room temperature for 1 hour before being read on a PheraStar FSX (fitted with 384-well aperture spoon and 540 590 590 FP optic module). The gain and focus were adjusted before each plate was read so that the polarisation of a no enzyme control (column 24) was equal to 35 mP. Data were normalised against the no inhibitor controls (column 23) and no enzyme controls (column 24).

Row | IC50 [1] | IC50 [2] | Compound
1 | 1000 to 10000 nM | 1000 to 10000 nM | CN1CCN(Cc2cccc3c2CN(C(=O)c2c(O)cc(O)cc2OCc2ccccc2)C3)CC1 [Example 9, (2-(Benzyloxy)-4,6-dihydroxyphenyl)(4-((4-methylpiperazin-1-yl)methyl)isoindolin-2-yl)methanone]
2 | 1000 to 10000 nM | 1000 to 10000 nM | O=C(c1c(O)cc(O)cc1OCc1ccccc1)N1Cc2cccc(CN3CCOCC3)c2C1 [Example 10, (2-(Benzyloxy)-4,6-dihydroxyphenyl)(4-(morpholinomethyl)isoindolin-2-yl)methanone]
3 | < 1000 nM | < 1000 nM | CN(C)CCOc1cc2c(c(N[C@H]3CCOC3)c1)CN(C(=O)c1c(O)cc(O)cc1OCc1ccccc1)CC2 [Example 132, (S)-(2-(Benzyloxy)-4,6-dihydroxyphenyl)(6-(2-(dimethylamino)ethoxy)-8-((tetrahydrofuran-3-yl)amino)-3,4-dihydroisoquinolin-2(1H)-yl)methanone]
4 | < 1000 nM | 1000 to 10000 nM | COc1cc2c(c(NC3CCOC3)c1)CN(C(=O)c1c(O)cc(O)cc1OCc1ccccc1)CC2 (single isomer, unassigned) [Example 72, (2-(Benzyloxy)-4,6-dihydroxyphenyl)(6-methoxy-8-((tetrahydrofuran-3-yl)amino)-3,4-dihydroisoquinolin-2(1H)-yl)methanone]
5 | > 10000 nM | > 10000 nM | NC(=O)c1ccc(Nc2cccc3c2CN(C(=O)c2c(O)cc(O)cc2OCc2ccccc2)CC3)cc1 [Example 75, 4-((2-(2-(Benzyloxy)-4,6-dihydroxybenzoyl)-1,2,3,4-tetrahydroisoquinolin-8-yl)amino)benzamide]
6 | < 1000 nM | 1000 to 10000 nM | COc1ccc(COc2cc(O)cc(O)c2C(=O)N2Cc3cccc(NC4CCOC4)c3C2)cc1 (stereo not drawn) [Example 39, (2,4-Dihydroxy-6-((4-methoxybenzyl)oxy)phenyl)(4-((tetrahydrofuran-3-yl)amino)isoindolin-2-yl)methanone]
7 | 1000 to 10000 nM | 1000 to 10000 nM | CN(C)Cc1ccc2c(c1)CCN(C(=O)c1c(O)cc(O)cc1OCc1ccccc1)C2 [Example 46, (2-Benzyloxy-4,6-dihydroxy-phenyl)-[6-[(dimethylamino)methyl]-3,4-dihydro-1H-isoquinolin-2-yl]methanone]
8 | 1000 to 10000 nM | 1000 to 10000 nM | CNc1cccc2c1CN(C(=O)c1c(O)cc(O)cc1OCc1ccccc1)C2 [Example 29, (2-(Benzyloxy)-4,6-dihydroxyphenyl)(4-(methylamino)isoindolin-2-yl)methanone]
9 | 1000 to 10000 nM | 1000 to 10000 nM | O=C(c1c(O)cc(O)cc1OCc1ccccc1)N1CCc2ccc(CNC3COC3)cc2C1 [Example 84, (2-(Benzyloxy)-4,6-dihydroxyphenyl)(7-((oxetan-3-ylamino)methyl)-3,4-dihydroisoquinolin-2(1H)-yl)methanone]
10 | < 1000 nM | > 10000 nM | CN1CCC(Nc2cccc3c2CN(C(=O)c2c(O)cc(O)cc2OCc2ccccc2)CC3)C1 (stereo not drawn) [Example 78, (2-(Benzyloxy)-4,6-dihydroxyphenyl)(8-((1-methylpyrrolidin-3-yl)amino)-3,4-dihydroisoquinolin-2(1H)-yl)methanone]
11 | < 1000 nM | < 1000 nM | CC(C)(C)OC(=O)NCCCCCN1CCN(Cc2ccc3c(c2)CN(C(=O)c2c(O)cc(O)cc2OCc2ccccc2)C3)CC1 [Example 103, t-Butyl (5-(4-((2-(2-(benzyloxy)-4,6-dihydroxybenzoyl)isoindolin-5-yl)methyl)piperazin-1-yl)pentyl)carbamate]
12 | < 1000 nM | 1000 to 10000 nM | O=C(c1c(O)cc(O)cc1OCc1ccccc1)N1Cc2cccc(NCC3CCCO3)c2C1 (stereo not drawn) [Example 33, (2-(Benzyloxy)-4,6-dihydroxyphenyl)(4-(((tetrahydrofuran-2-yl)methyl)amino)isoindolin-2-yl)methanone]
13 | < 1000 nM | 1000 to 10000 nM | O=C(c1c(O)cc(O)cc1OCc1ccccc1)N1Cc2cccc(NCC3CCOC3)c2C1 (stereo not drawn) [Example 112, (2-(Benzyloxy)-4,6-dihydroxyphenyl)(4-(((tetrahydrofuran-3-yl)methyl)amino)isoindolin-2-yl)methanone]
14 | < 1000 nM | > 10000 nM | O=C(c1c(O)cc(O)cc1OCc1cccnc1)N1Cc2cccc(NC3CCOC3)c2C1 (stereo not drawn) [Example 96, (2,4-dihydroxy-6-(pyridin-3-ylmethoxy)phenyl)(4-((tetrahydrofuran-3-yl)amino)isoindolin-2-yl)methanone]
15 | 1000 to 10000 nM | 1000 to 10000 nM | O=C(c1c(O)cc(O)cc1OCc1ccccc1)N1CCc2ccc(CNC3CCOC3)cc2C1 (stereo not drawn) [Example 85, (2-(Benzyloxy)-4,6-dihydroxyphenyl)(7-(((tetrahydrofuran-3-yl)amino)methyl)-3,4-dihydroisoquinolin-2(1H)-yl)methanone]
16 | 1000 to 10000 nM | 1000 to 10000 nM | O=C(c1c(O)cc(O)cc1OCc1ccccc1)N1CCc2ncnc(N[C@H]3CCOC3)c2C1 [Example 115, (S)-(2-(Benzyloxy)-4,6-dihydroxyphenyl)(4-((tetrahydrofuran-3-yl)amino)-7,8-dihydropyrido[4,3-d]pyrimidin-6(5H)-yl)methanone]
17 | 1000 to 10000 nM | < 1000 nM | N#Cc1cccc2c1CN(C(=O)c1c(O)cc(O)cc1OCc1ccccc1)C2 [Example 91, 2-(2-(Benzyloxy)-4,6-dihydroxybenzoyl)isoindoline-4-carbonitrile]
18 | < 1000 nM | 1000 to 10000 nM | O=C(c1c(O)cc(O)cc1OCc1ccc(F)cc1)N1Cc2cccc(NC3CCOC3)c2C1 (stereo not drawn) [Example 37, (2-((4-Fluorobenzyl)oxy)-4,6-dihydroxyphenyl)(4-((tetrahydrofuran-3-yl)amino)isoindolin-2-yl)methanone]
19 | < 1000 nM | < 1000 nM | O=C(c1c(O)cc(O)cc1OCc1ccccc1)N1Cc2ccc(CNC3CCOC3)cc2C1 (stereo not drawn) [Example 145, (2-(Benzyloxy)-4,6-dihydroxyphenyl)(5-(((tetrahydrofuran-3-yl)amino)methyl)isoindolin-2-yl)methanone]
20 | 1000 to 10000 nM | > 10000 nM | COC1COCC1Nc1cccc2c1CN(C(=O)c1c(O)cc(O)cc1OCc1ccccc1)CC2 (stereo not drawn) [Example 148, (2-(Benzyloxy)-4,6-dihydroxyphenyl)(8-((4-methoxytetrahydrofuran-3-yl)amino)-3,4-dihydroisoquinolin-2(1H)-yl)methanone]
21 | 1000 to 10000 nM | > 10000 nM | O=C(c1c(O)cc(O)cc1OCc1ccccc1)N1CCc2cccc(NC3CCCC3)c2C1 [Example 76, (2-(Benzyloxy)-4,6-dihydroxyphenyl)(8-(cyclopentylamino)-3,4-dihydroisoquinolin-2(1H)-yl)methanone]
